From ChEMBL document CHEMBL3217615, “Novel 3,5-bis(arylidiene)-4-piperidone based monocarbonyl analogs of curcumin: anticancer activity evaluation and mode of action study” (2014)

Assays:
Format in all cases: functional
SN12C = test: Growth inhibition of human SN12C cells assessed as cell growth at 10^-7 M after 48 hrs by sulforhodamine B assay; conditions: read-out: Activity
MDA-MB-468 [1] = test: Growth inhibition of human MDA-MB-468 cells assessed as cell growth at 10^-6 M after 48 hrs by sulforhodamine B assay; conditions: MDA-MB-468, 48 h, read-out: Activity
COLO 205 [2] = test: Growth inhibition of human COLO205 cells assessed as cell growth at 10^-7 M after 48 hrs by sulforhodamine B assay; conditions: COLO 205, 48 h, read-out: Activity
SF-268 = test: Growth inhibition of human SF268 cells after 48 hrs by sulforhodamine B assay; conditions: SF-268, 48 h; for CC50: read-out: LC50 (the source's name)
CAKI-1 [3] = test: Growth inhibition of human CAKI-1 cells assessed as cell growth at 10^-4 M after 48 hrs by sulforhodamine B assay; conditions: CAKI-1, 48 h, read-out: Activity
U-251 = test: Growth inhibition of human U251 cells after 48 hrs by sulforhodamine B assay; conditions: U-251, 48 h; for CC50: read-out: LC50 (the source's name)
HOP-62 = test: Growth inhibition of human HOP62 cells after 48 hrs by sulforhodamine B assay; conditions: HOP-62, 48 h; for CC50: read-out: LC50 (the source's name)
MDA-MB-435 = test: Growth inhibition of human MDA-MB-435 cells assessed as cell growth at 10^-8 M after 48 hrs by sulforhodamine B assay; conditions: MDA-MB-435, 48 h; for growth at 0.01 µM: read-out: Activity; for TGI: read-out: pTGI (converted)
[4] = Growth inhibition of human UACC62 cells assessed as cell growth at 10^-8 M after 48 hrs by sulforhodamine B assay; conditions: UACC-62, 48 h; for growth at 0.01 µM: read-out: Activity; for TGI: read-out: pTGI (converted)
IGROV-1 = test: Growth inhibition of human IGROV1 cells assessed as cell growth at 10^-4 M after 48 hrs by sulforhodamine B assay; conditions: IGROV-1, 48 h, read-out: Activity
K562 = test: Growth inhibition of human K562 cells assessed as cell growth at 10^-7 M after 48 hrs by sulforhodamine B assay; conditions: K562, 48 h, read-out: Activity
ACHN = test: Growth inhibition of human ACHN cells assessed as cell growth at 10^-8 M after 48 hrs by sulforhodamine B assay; conditions: for growth at 0.01 µM: read-out: Activity; for TGI: read-out: pTGI (converted)
SK-OV-3 = test: Growth inhibition of human SKOV3 cells assessed as cell growth at 10^-6 M after 48 hrs by sulforhodamine B assay; conditions: SK-OV-3, 48 h, read-out: Activity
[5] = Growth inhibition of human OVCAR5 cells assessed as cell growth at 10^-7 M after 48 hrs by sulforhodamine B assay; conditions: OVCAR-5, 48 h, read-out: Activity
[6] = Growth inhibition of human OVCAR4 cells assessed as cell growth at 10^-8 M after 48 hrs by sulforhodamine B assay; conditions: OVCAR-4, 48 h; for growth at 0.01 µM: read-out: Activity; for TGI: read-out: pTGI
NCI-H460 = test: Growth inhibition of human NCI-H460 cells assessed as cell growth at 10^-7 M after 48 hrs by sulforhodamine B assay; conditions: NCI-H460, 48 h, read-out: Activity
NCI-H322M [7] = test: Growth inhibition of human NCI-H322M cells assessed as cell growth at 10^-4 M after 48 hrs by sulforhodamine B assay; conditions: read-out: Activity
SR = test: Growth inhibition of human SR cells assessed as cell growth at 10^-4 M after 48 hrs by sulforhodamine B assay; conditions: read-out: Activity
MDA-MB-468 [8] = test: Growth inhibition of human MDA-MB-468 cells assessed as cell growth at 10^-7 M after 48 hrs by sulforhodamine B assay; conditions: MDA-MB-468, 48 h, read-out: Activity
[9] = Growth inhibition of human SF539 cells assessed as cell growth at 10^-4 M after 48 hrs by sulforhodamine B assay; conditions: SF-539, 48 h, read-out: Activity
A549 = test: Growth inhibition of human A549/ATCC cells assessed as cell growth at 10^-6 M after 48 hrs by sulforhodamine B assay; conditions: A549, 48 h, read-out: Activity
NCI-H322M [10] = test: Growth inhibition of human NCI-H322M cells assessed as cell growth at 10^-6 M after 48 hrs by sulforhodamine B assay; conditions: read-out: Activity
SK-MEL-5 = test: Growth inhibition of human SK-MEL-5 cells assessed as cell growth at 10^-8 M after 48 hrs by sulforhodamine B assay; conditions: SK-MEL-5, 48 h; for growth at 0.01 µM: read-out: Activity; for CC50: read-out: pLC50 (the source's name) (converted); for TGI: read-out: pTGI (converted)
[11] = Growth inhibition of human SF539 cells assessed as cell growth at 10^-7 M after 48 hrs by sulforhodamine B assay; conditions: SF-539, 48 h, read-out: Activity
COLO 205 [12] = test: Induction of apoptosis in human COLO205 cells assessed as caspase 8 activation at 10 uM by FLICA
[13] = Growth inhibition of human RXF393 cells assessed as cell growth at 10^-8 M after 48 hrs by sulforhodamine B assay; conditions: RXF 393, 48 h; for growth at 0.01 µM: read-out: Activity; for CC50: read-out: pLC50 (the source's name) (converted); for TGI: read-out: pTGI (converted)
HT-29 = test: Growth inhibition of human HT-29 cells after 48 hrs by sulforhodamine B assay; conditions: HT-29, 48 h; for CC50: read-out: LC50 (the source's name)
CAKI-1 [14] = test: Growth inhibition of human CAKI-1 cells after 48 hrs by sulforhodamine B assay; conditions: CAKI-1, 48 h; for CC50: read-out: LC50 (the source's name)
[15] = Growth inhibition of human UACC62 cells assessed as cell growth at 10^-7 M after 48 hrs by sulforhodamine B assay; conditions: UACC-62, 48 h, read-out: Activity
MCF7 = test: Growth inhibition of human MCF7 cells assessed as cell growth at 10^-8 M after 48 hrs by sulforhodamine B assay; conditions: MCF7, 48 h; for growth at 0.01 µM: read-out: Activity; for TGI: read-out: pTGI (converted)
[16] = Growth inhibition of human LOXIMVI cells after 48 hrs by sulforhodamine B assay; conditions: LOX IMVI
RPMI-8226 = test: Growth inhibition of human RPMI8226 cells after 48 hrs by sulforhodamine B assay; conditions: RPMI-8226, 48 h
[17] = Growth inhibition of human UACC62 cells assessed as cell growth at 10^-4 M after 48 hrs by sulforhodamine B assay; conditions: UACC-62, 48 h, read-out: Activity

O=C1/C(=C/c2ccc(Cl)cc2Cl)CN(S(=O)(=O)c2ccccc2)C/C1=C\c1ccc(Cl)cc1Cl
growth at 0.1 µM (SN12C): 92%
growth at 1 µM (MDA-MB-468 [1]): 55%
growth at 0.1 µM (COLO 205 [2]): 107%
GI50 (SF-268): 447 nM
TGI (SF-268): > 100000 nM
CC50 (SF-268): > 100000 nM
growth at 100 µM (CAKI-1 [3]): -11%
GI50 (U-251): 173 nM
TGI (U-251): 373 nM
CC50 (U-251): 805 nM
GI50 (HOP-62): 385 nM
TGI (HOP-62): > 100000 nM
CC50 (HOP-62): > 100000 nM
GI50 (MDA-MB-435): 977 nM
LC50 (MDA-MB-435): > 100000 nM
growth at 0.01 µM (MDA-MB-435): 90%
TGI (MDA-MB-435): 3240 nM
GI50 [4]: 813 nM
LC50 [4]: 5750 nM
growth at 0.01 µM [4]: 94%
TGI [4]: 2290 nM
growth at 100 µM (IGROV-1): -47%
growth at 0.1 µM (K562): 99%
GI50 (ACHN): 871 nM
LC50 (ACHN): > 100000 nM
growth at 0.01 µM (ACHN): 99%
TGI (ACHN): 4570 nM
growth at 1 µM (SK-OV-3): 108%
growth at 0.1 µM [5]: 94%
GI50 [6]: 282 nM
LC50 [6]: > 100000 nM
growth at 0.01 µM [6]: 102%
TGI [6]: > 100000 nM
growth at 0.1 µM (NCI-H460): 98%
growth at 100 µM (NCI-H322M [7]): -11%
growth at 100 µM (SR): -21%
growth at 0.1 µM (MDA-MB-468 [8]): 94%
growth at 100 µM [9]: -40%
growth at 1 µM (A549): -5%
growth at 1 µM (NCI-H322M [10]): 35%
growth at 0.01 µM (SK-MEL-5): 94%
CC50 (SK-MEL-5): > 100000 nM
TGI (SK-MEL-5): > 100000 nM
growth at 0.1 µM [11]: 97%
Activity (COLO 205 [12]): 23%
GI50 [13]: 1070 nM
growth at 0.01 µM [13]: 78%
CC50 [13]: 5500 nM
TGI [13]: 2400 nM
GI50 (HT-29): 293 nM
TGI (HT-29): 843 nM
CC50 (HT-29): > 100000 nM
GI50 (CAKI-1 [14]): 1840 nM
TGI (CAKI-1 [14]): 5750 nM
CC50 (CAKI-1 [14]): > 100000 nM
growth at 0.1 µM [15]: 95%
GI50 (MCF7): 302 nM
LC50 (MCF7): > 100000 nM
growth at 0.01 µM (MCF7): 96%
TGI (MCF7): 100000 nM
GI50 [16]: 203 nM
TGI [16]: 508 nM
GI50 (RPMI-8226): 225 nM
LC50 (RPMI-8226): > 100000 nM
TGI (RPMI-8226): 605 nM
growth at 100 µM [17]: -71%

Cc1ccc(S(=O)(=O)N2C/C(=C\c3cc(F)cc(F)c3)C(=O)/C(=C/c3cc(F)cc(F)c3)C2)cc1
growth at 0.1 µM (SN12C): 94%
growth at 1 µM (MDA-MB-468 [1]): 22%
growth at 0.1 µM (COLO 205 [2]): 106%
GI50 (SF-268): 431 nM
TGI (SF-268): 2150 nM
CC50 (SF-268): 14400 nM
growth at 100 µM (CAKI-1 [3]): -57%
GI50 (U-251): 188 nM
TGI (U-251): 530 nM
CC50 (U-251): 2020 nM
GI50 (HOP-62): 2040 nM
TGI (HOP-62): 4640 nM
CC50 (HOP-62): 11900 nM
GI50 (MDA-MB-435): 240 nM
LC50 (MDA-MB-435): 3630 nM
growth at 0.01 µM (MDA-MB-435): 96%
TGI (MDA-MB-435): 692 nM
GI50 [4]: 214 nM
LC50 [4]: 1620 nM
growth at 0.01 µM [4]: 94%
TGI [4]: 513 nM
growth at 100 µM (IGROV-1): -80%
growth at 0.1 µM (K562): 44%
GI50 (ACHN): 245 nM
LC50 (ACHN): 2400 nM
growth at 0.01 µM (ACHN): 101%
TGI (ACHN): 617 nM
growth at 1 µM (SK-OV-3): 77%
growth at 0.1 µM [5]: 93%
GI50 [6]: 437 nM
LC50 [6]: 36300 nM
growth at 0.01 µM [6]: 100%
TGI [6]: 5250 nM
growth at 0.1 µM (NCI-H460): 104%
growth at 100 µM (NCI-H322M [7]): -44%
growth at 100 µM (SR): -30%
growth at 0.1 µM (MDA-MB-468 [8]): 83%
growth at 100 µM [9]: -94%
growth at 1 µM (A549): 86%
growth at 1 µM (NCI-H322M [10]): 101%
GI50 (SK-MEL-5): 288 nM
growth at 0.01 µM (SK-MEL-5): 98%
CC50 (SK-MEL-5): 3630 nM
TGI (SK-MEL-5): 1070 nM
growth at 0.1 µM [11]: 93%
Activity (COLO 205 [12]): 61%
GI50 [13]: 724 nM
growth at 0.01 µM [13]: 96%
CC50 [13]: 5130 nM
TGI [13]: 2140 nM
GI50 (HT-29): 229 nM
TGI (HT-29): 638 nM
CC50 (HT-29): 3190 nM
GI50 (CAKI-1 [14]): 365 nM
TGI (CAKI-1 [14]): 2430 nM
CC50 (CAKI-1 [14]): 61900 nM
growth at 0.1 µM [15]: 93%
GI50 (MCF7): 174 nM
LC50 (MCF7): 6920 nM
growth at 0.01 µM (MCF7): 89%
TGI (MCF7): 1450 nM
GI50 [16]: 175 nM
TGI [16]: 339 nM
CC50 ([16]; read-out: LC50 (the source's name)): 656 nM
GI50 (RPMI-8226): 37.2 nM
LC50 (RPMI-8226): 93800 nM
TGI (RPMI-8226): 331 nM
growth at 100 µM [17]: -98%
